According to the NIST ThermoML archive (doi:10.1021/je049571n):
± gives the expanded uncertainty stated by the source.

Legend:
[1] = Liquid; for mass density: 101.33 kPa
[2] = refractive index (Na D-line) (dimensionless); conditions: 101.33 kPa, Liquid, Standard Abbe refractometry

| mass density ([1]; 298.2 K) | Normal boiling temperature [1] | refractive index ([2]; 293.2 K) | mass density ([1]; 293.2 K) | refractive index ([2]; 298.2 K) | SMILES |
| --- | --- | --- | --- | --- | --- |
| 1047.22 ± 0.28 kg/m3 | 118.1 ± 0.2 °C | 1.3719 ± 0.0012 | – | – | CC(=O)O [acetic acid] |
| – | 214.1 ± 0.2 °C | – | 1087.74 ± 0.65 kg/m3 | 1.4242 ± 0.0012 | COC(=O)CCCC(=O)OC [dimethyl pentanedioate] |
